Results as given in paper PMC9646836, “Tetrahydroquinolinone derivatives exert antiproliferative effect on lung cancer cells through apoptosis induction” (Scientific Reports, 2022).

Tests used:
A549 cells = experiment: Apoptosis assay (Annexin V/7-AAD, flow cytometry); assay type: cell-based, human; details: A549, IC50 concentration
Experimental: To further explain the mechanism by which 4a induced cell death in cancer cells, a flow cytometric analysis was performed by dual-staining the cells with 7-aminoactinomycin D (7-AAD) and Annexin V-fluorescein isothiocyanate (FITC). Annexin-V is a Ca^2+-dependent protein with potent affinity to phosphatidylserine. During early apoptosis, cells lose plasma membrane asymmetry through, for example, the externalization of phosphatidylserine. Once exposed to the outside of the cell surface, phosphatidylserine can be recognized by Annexin-V, and quantified. On the other hand, 7-AAD is a dye that cannot penetrate the intact cell membrane, and allows differentiating between necrotic and late apoptotic cells from living and early apoptotic cells. […] Treatment with the tested compound for 24 h caused 3.9-fold augmentation in apoptosis [early: 7-AAD (–), Annexin V-FITC (+); late: 7-AAD (+), Annexin V-FITC (+)] in comparison to the vehicle.
Cells were seeded in a 5-cm^2 dish at a density of 15 × 10^5 cells per dish and allowed to attach overnight at 37 °C. Then, compounds at IC50 concentrations were added to the medium. After 6, 24, and 48 h, the cells were harvested and washed with PBS. Subsequently, the cells were resuspended in the binding buffer and stained with Annexin V Alexa Fluor™ 488 conjugate (#A13201; Thermo Fisher Scientific) for the apoptosis assay and with CellEvent™ Caspase-3/7 Green Flow Cytometry Assay Kit (#C10427; Thermo Fisher Scientific) for the activation of caspase-3/7, as per the manufacturer’s instructions. After incubation, the samples were immediately analyzed using a Guava EasyCyte 8 cell sorter (Merck Millipore) and FlowJo software v10. Each experiment was repeated three times.

HepG2 = experiment: MTT cell viability assay, HepG2; assay type: cell-based; details: Homo sapiens, HepG2, 72 h, mean ± SD, n = 3
Experimental: (§1) All new tetrahydroquinoline derivatives were assessed for cytotoxicity on a broad panel of cancer and normal cell lines, using the MTT assay. The half-inhibitory growth inhibitory concentration (IC50) values of each compound were calculated after 72 h of treatment and presented in Table 1. […] In this assay, the IC50 value of 5-FU and ETP was recorded as a positive control.
(§2) Non-small cell lung cancer cells A549 (CCL-185), breast cancer cells MCF-7 ([…]), hepatocarcinoma cells HepG2 ([…]), normal kidney cells HEK293 (CRL-1573), and osteosarcoma cells U-2 OS (HTB-96) were obtained from the American Type Culture Collection. HCT-116 cell line was kindly provided by prof. Bert Vogelstein (Johns Hopkins University, Howard Hughes Medical Institute, USA). The obtained A549 and MCF-7 cells were cultured in RPMI-1640 medium, HepG2 cells in Minimum Essential Medium Eagle medium, HEK-293 cells in Dulbecco’s Modified Eagle’s medium, and U-2 OS and HCT-116 cells in McCoy’s […] medium. All culture media were supplemented with 10% fetal bovine serum, 2 mM L-glutamine, and antibiotics (penicillin 62.6 µg/ml and streptomycin 40 µg/ml; Sigma-Aldrich). Both cancer and normal cells were cultured at 37 °C under a humidified atmosphere with 5% or 10% CO2 and routinely screened for Mycoplasma contamination. All materials and reagents were obtained from Corning unless stated otherwise.
(§3) The cytotoxic effect of the synthesized compounds was assessed by the MTT (4,5-dimethylthiazol-2-yl-2,5-diphenyltetrazoliumbromide; Sigma-Aldrich) assay. Briefly, the cells were seeded into 96-well transparent flat-bottom plates and allowed to attach overnight. On the next day, the cells were treated with compounds in the range of 0–50 µM for 72 h. Dimethyl sulfoxide (DMSO; Merck) and 5-fluorouracil (5-FU; Sigma-Aldrich) were used as a reference. After exposure to the compounds, 20 μl of the MTT solution at a concentration of 4 mg/ml was added to each well, and the plates were incubated again for 2–3 h at 37 °C. Next, the media in the wells was replaced with 100 μl DMSO to solubilize the formazan crystals. The absorbance was measured at 540 nm using an ASYS UVM340 microplate reader (Biochrom Ltd.). The IC50 value of the compounds was calculated using GraphPad Prism 9 software, based on the curves plotted with survival as a function of dose, averaged from three independent experiments.

HCT-116 = experiment: MTT cell viability assay, HCT-116; assay type: cell-based, human; details: mean ± SD, n = 3
Experimental: as §1, §2, §3

[1] = system: apoptosis-related proteins in A549 cells; experiment: Western blotting of apoptosis-related proteins; assay type: cell-based, human
Experimental: The expression of apoptosis-related proteins was determined by Western blotting. Briefly, A549 cells were treated with compound 4a at its IC50 concentration for 6, 24, and 48 h. The cells treated with 1% v/v DMSO served as the negative control. The total protein content was extracted from the cells using the NP-40 cell lysis buffer (10 mM Tris–HCl pH 7.4, 10 mM NaCl, 3 mM MgCl2, 0.5% Nonidet P-40, cOmplete Mini EDTA-free Protease Inhibitor Cocktail). Then, 30 µg of protein extract was separated by 10% sodium dodecyl sulfate–polyacrylamide gel electrophoresis, and the separated proteins were transferred to microporous polyvinylidene difluoride membranes (Bio-Rad). The membranes were blocked with 5% bovine serum albumin in tris-buffered saline-Tween 20 (TBST) buffer (0.2 M Tris-base, 0.137 M NaCl, 0.1% Tween 20) for 1 h at RT, and incubated overnight with primary antibodies at 4 °C. The blots were washed three times with TBST and incubated with appropriate peroxidase-conjugated secondary antibodies for 1 h at RT. Then, the blots were washed in TBST for 30 min and developed using an enhanced chemiluminescence detection reagent kit (Thermo Fisher Scientific) and a ChemiDoc XRS + Imaging System (Bio-Rad). All materials and reagents were obtained from Sigma-Aldrich unless stated otherwise.

Hela = experiment: MTT cell viability assay, Hela; assay type: cell-based; details: Homo sapiens, HeLa, 72 h, mean ± SD, n = 3
Experimental: as §1, §3

[2] = A549, IC50 concentration, 6, 24, 48 h

IC50 (HepG2): > 50 µM
IC50 (HCT-116; 72 h): 12.2 ± 1.61 µM
IC50 (HCT-116; Homo sapiens, HCT-116, 72 h): ~13 µM
IC50 (Hela): > 50 µM
SMILES: O=c1[nH]c2c(c(-c3ccccc3)c1Cc1cccc3ccccc13)CCCC2 [Compound 4a, 3-(1-naphthylmethyl)-4-phenyl-5,6,7,8-tetrahydro-1H-quinolin-2-one]
increase in the fraction of early-apoptotic cells [7-AAD (–), Annexin V-FITC (+)] (A549 cells; 6 h, vs DMSO control): 14.03 ± 1.74%
augmentation in apoptosis (early + late) (A549 cells; 24 h, vs vehicle): 3.9 fold
percentage of apoptotic cells (A549 cells; 48 h): significant increase
PARP-1 band [1, 2]: proteolytic cleavage
caspase-3, caspase-8, and caspase-9 [1, 2]: cleaved into their corresponding catalytically active forms
expression of BAD protein [1, 2]: higher than that in the control group
expression of BAX protein [1, 2]: higher than that in the control group
expression of BCL-2 protein [1, 2]: significantly decreased
expression of BID [1, 2]: slightly activated
expression of AIF ([1]; A549, IC50 concentration, vs DMSO-treated control): remained unchanged
